Key:
[1] = Concentration required to protect the cell against HIV-1 strain IIIB viral cytopathogenicity by 50% in MT-4 cells
[2] = Inhibitory concentration against SO561945 (HIV 1 mutant RT) viral infection of MT-4 cells
[3] = as above; remark: listed apart in the source

Row | SMILES | IC50 [1] | IC50 [2] | IC50 [3]
1 | Cc1c(Sc2ccccc2)n(COCCO)c(=O)[nH]c1=O | 5060 nM | > 405000 nM | –
2 | COc1ccc(C(=O)CSc2nc(Cc3cccc4ccccc34)c(C)c(=O)[nH]2)cc1 | – | – | 370 nM
3 | CCc1c(Cc2cccc3ccccc23)nc(SCC(=O)c2ccc(F)cc2)[nH]c1=O | 78 nM | 24200 nM | –
4 | COC(=O)CSc1nc(Cc2cccc3ccccc23)c(C(C)C)c(=O)[nH]1 | 4490 nM | > 179000 nM | –
5 | CCc1c(Cc2cccc3ccccc23)nc(SCC(=O)c2ccc(C)cc2)[nH]c1=O | – | – | 320 nM
6 | CC(=O)CSc1nc(Cc2cccc3ccccc23)c(C(C)C)c(=O)[nH]1 | 410 nM | > 43100 nM | –
7 | CCc1c(Cc2cccc3ccccc23)nc(SCC(=O)c2ccc(OC)cc2)[nH]c1=O | – | > 178000 nM | 45 nM
8 | COc1ccc(C(=O)CSc2nc(Cc3cccc4ccccc34)c(C(C)C)c(=O)[nH]2)cc1 | 30 nM | 5820 nM | –
9 | CCc1c(Cc2cccc3ccccc23)nc(SCC(=O)c2ccc(Cl)cc2)[nH]c1=O | 260 nM | > 56000 nM | –
10 | CCOC(=O)CSc1nc(Cc2cccc3ccccc23)c(C)c(=O)[nH]1 | – | – | 7000 nM
11 | COC(=O)CSc1nc(Cc2cccc3ccccc23)c(C)c(=O)[nH]1 | – | – | 6990 nM
12 | CCOC(=O)CSc1nc(Cc2cccc3ccccc23)c(C(C)C)c(=O)[nH]1 | – | > 175000 nM | 1410 nM
13 | Cc1ccc(C(=O)CSc2nc(Cc3cccc4ccccc34)c(C)c(=O)[nH]2)cc1 | – | – | 670 nM
14 | Cc1c(Cc2cccc3ccccc23)nc(SCC(=O)c2ccc(F)cc2)[nH]c1=O | – | – | 180 nM
15 | CC(C)c1c(Cc2cccc3ccccc23)nc(SCC(=O)c2ccc(F)cc2)[nH]c1=O | 78 nM | 188000 nM | –
16 | CC(C)c1c(Cc2cccc3ccccc23)nc(SCC(=O)c2ccc(Cl)cc2)[nH]c1=O | 320 nM | – | > 270000 nM
17 | Cc1c(Cc2cccc3ccccc23)nc(SCC(=O)c2ccc(Cl)cc2)[nH]c1=O | – | – | 550 nM
18 | Cc1ccc(C(=O)CSc2nc(Cc3cccc4ccccc34)c(C(C)C)c(=O)[nH]2)c(C)c1 | – | 2670 nM | 240 nM
19 | CC(C)c1c(Cc2cccc3ccccc23)nc(SCC(=O)c2ccccc2)[nH]c1=O | 46 nM | 19600 nM | –
20 | CCc1c(Cc2cccc3ccccc23)nc(SCC(=O)OC)[nH]c1=O | – | – | 4720 nM
21 | CC(=O)CSc1nc(Cc2cccc3ccccc23)c(C)c(=O)[nH]1 | – | – | 1120 nM
22 | Cc1ccc(C(=O)CSc2nc(Cc3cccc4ccccc34)c(C(C)C)c(=O)[nH]2)cc1 | – | – | 240 nM
23 | O=c1[nH]cnc2c1ncn2[C@H]1CC[C@@H](CO)O1 [BMY-40900] | 5370 nM | 7150 nM | –

Reference: BindingDB's records for doi:10.1016/j.bmcl.2004.04.008 (Fudan University, 2004)
